Source: PubChem BioAssay AID1963983 (Molecular Pharmacology Branch, DTP, NCI, 2024)
pIC50: −log10 of the molar value.

System: 186277-243-T-J2-PDC multi-cell spheroid viability
Assay: Anticancer human tumor 186277-243-T-J2-PDC patient-derived colon adenocarcinoma cell line growth inhibition [PI3K]
Conditions: for pIC50: curve of first compound; for viability, T/C: stronger effect = lower value; active means viability on the fitted dose curve at most 10% of control; inactive means the rest
Outline: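 Agents were dosed from a top concentration near clinical Cmax (otherwise 10 microM) in half-log decrements, alone or combined with PI3K inhibitors. The spheroids contain tumor cells plus endothelial (HUVEC) and MSC stroma; viability is measured.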

[1] = second compound 0.00316 µM, first compound 0.0316 µM
[2] = second compound 0.00316 µM, first compound 0.1 µM
[3] = second compound 0.00316 µM, first compound 0.316 µM
[4] = second compound 0.00316 µM, first compound 1 µM
[5] = second compound 0.00316 µM, first compound 3.16 µM
[6] = second compound 0.00316 µM, first compound 10 µM
[7] = second compound 0.01 µM, first compound 0.0316 µM
[8] = second compound 0.01 µM, first compound 0.1 µM
[9] = second compound 0.01 µM, first compound 0.316 µM
[10] = second compound 0.01 µM, first compound 1 µM
[11] = second compound 0.01 µM, first compound 3.16 µM
[12] = second compound 0.01 µM, first compound 10 µM
[13] = second compound 0.0316 µM, first compound 0.0316 µM
[14] = second compound 0.0316 µM, first compound 0.1 µM
[15] = second compound 0.0316 µM, first compound 0.316 µM
[16] = second compound 0.0316 µM, first compound 1 µM
[17] = second compound 0.0316 µM, first compound 3.16 µM
[18] = second compound 0.0316 µM, first compound 10 µM
[19] = second compound 0.1 µM, first compound 0.0316 µM
[20] = second compound 0.1 µM, first compound 0.1 µM
[21] = second compound 0.1 µM, first compound 0.316 µM
[22] = second compound 0.1 µM, first compound 1 µM
[23] = second compound 0.1 µM, first compound 3.16 µM
[24] = second compound 0.1 µM, first compound 10 µM
[25] = second compound 0.316 µM, first compound 0.0316 µM
[26] = second compound 0.316 µM, first compound 0.1 µM
[27] = second compound 0.316 µM, first compound 0.316 µM
[28] = second compound 0.316 µM, first compound 1 µM
[29] = second compound 0.316 µM, first compound 3.16 µM
[30] = second compound 0.316 µM, first compound 10 µM
[31] = second compound 1 µM, first compound 0.0316 µM
[32] = second compound 1 µM, first compound 0.1 µM
[33] = second compound 1 µM, first compound 0.316 µM
[34] = second compound 1 µM, first compound 1 µM
[35] = second compound 1 µM, first compound 3.16 µM
[36] = second compound 1 µM, first compound 10 µM
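Further: spheroids exposed to compounds for seven days before viability reading.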
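Wherever viability, T/C is given: 100% = DMSO vehicle control viability.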

CCCS(=O)(=O)Nc1ccc(F)c(C(=O)c2c[nH]c3ncc(-c4ccc(Cl)cc4)cc23)c1F + COc1c(OCCCN2CCOCC2)ccc2c3n(c(=NC(=O)c4cnc(N)nc4)nc12)CCN3
active: viability, T/C [25] 7.65% | viability, T/C [26] 8.23% | viability, T/C [27] 7.39% | viability, T/C [28] 8.35% | viability, T/C [29] 12.3% | viability, T/C [30] 2.99% | viability, T/C [31] 3.27% | viability, T/C [32] 3.82% | viability, T/C [33] 3.96% | viability, T/C [34] 4.58% | viability, T/C [35] 7.64% | viability, T/C [36] 2.38%
> 7.50: pIC50 (second compound 0.1 µM) | pIC50 (second compound 0.316 µM) | pIC50 (second compound 1 µM)
inactive: viability, T/C [1] 114% | viability, T/C [2] 99.1% | viability, T/C [3] 84.9% | viability, T/C [4] 83.5% | viability, T/C [5] 79.4% | viability, T/C [6] 14.2% | viability, T/C [7] 105% | viability, T/C [8] 90.1% | viability, T/C [9] 110% | viability, T/C [10] 90.3% | viability, T/C [11] 87% | viability, T/C [12] 13.8% | viability, T/C [13] 81.1% | viability, T/C [14] 68.5% | viability, T/C [15] 96.3% | viability, T/C [16] 88.2% | viability, T/C [17] 77.9% | viability, T/C [18] 12.2% | viability, T/C [19] 23.1% | viability, T/C [20] 27.3% | viability, T/C [21] 29.4% | viability, T/C [22] 46.7% | viability, T/C [23] 46% | viability, T/C [24] 7.08%
5.29: pIC50 (second compound 0.0316 µM)
5.25: pIC50 (second compound 0.01 µM)
5.31: pIC50 (second compound 0.00316 µM)

CCCS(=O)(=O)Nc1ccc(F)c(C(=O)c2c[nH]c3ncc(-c4ccc(Cl)cc4)cc23)c1F + CC(Nc1ccc2c(c1)OCCn1cc(N3C(=O)OCC3C(F)F)nc1-2)C(N)=O
inactive: viability, T/C [1] 108% | viability, T/C [2] 91.5% | viability, T/C [3] 92.4% | viability, T/C [4] 83.9% | viability, T/C [5] 77.4% | viability, T/C [7] 118% | viability, T/C [8] 90.4% | viability, T/C [9] 83.8% | viability, T/C [10] 90.5% | viability, T/C [11] 89.9% | viability, T/C [13] 112% | viability, T/C [14] 103% | viability, T/C [15] 102% | viability, T/C [16] 95.6% | viability, T/C [17] 88.7% | viability, T/C [19] 101% | viability, T/C [20] 105% | viability, T/C [21] 118% | viability, T/C [22] 113% | viability, T/C [23] 81.2% | viability, T/C [25] 81% | viability, T/C [26] 80.3% | viability, T/C [27] 87.1% | viability, T/C [28] 105% | viability, T/C [29] 71.5% | viability, T/C [31] 59% | viability, T/C [32] 60.9% | viability, T/C [33] 70.4% | viability, T/C [34] 65.1% | viability, T/C [35] 63.2%
active: viability, T/C [6] 6.03% | viability, T/C [12] 5.05% | viability, T/C [18] 6.11% | viability, T/C [24] 4% | viability, T/C [30] 4.62% | viability, T/C [36] 5.04%
5.34: pIC50 (second compound 0.316 µM)
5.30: pIC50 (second compound 0.1 µM)
5.32: pIC50 (second compound 0.00316 µM)
5.27: pIC50 (second compound 0.01 µM) | pIC50 (second compound 0.0316 µM)
5.39: pIC50 (second compound 1 µM)

CCCS(=O)(=O)Nc1ccc(F)c(C(=O)c2c[nH]c3ncc(-c4ccc(Cl)cc4)cc23)c1F + Cc1nc(NC(=O)N2CCCC2C(N)=O)sc1-c1ccnc(C(C)(C)C(F)(F)F)c1
5.27: pIC50 (second compound 0.0316 µM) | pIC50 (second compound 0.1 µM)
active: viability, T/C [18] 8.5% | viability, T/C [24] 7.3% | viability, T/C [30] 7.15% | viability, T/C [36] 6.14% | viability, T/C (second compound 3.16 µM, first compound 10 µM) 5.53%
5.31: pIC50 (second compound 1 µM)
> 7.50: pIC50 (second compound 10 µM)
inactive: viability, T/C [13] 88.2% | viability, T/C [14] 76.7% | viability, T/C [15] 88.5% | viability, T/C [16] 89.2% | viability, T/C [17] 89% | viability, T/C [19] 98.1% | viability, T/C [20] 105% | viability, T/C [21] 89.6% | viability, T/C [22] 94.9% | viability, T/C [23] 87.2% | viability, T/C [25] 113% | viability, T/C [26] 103% | viability, T/C [27] 89.2% | viability, T/C [28] 88% | viability, T/C [29] 78.7% | viability, T/C [31] 95.8% | viability, T/C [32] 104% | viability, T/C [33] 98.5% | viability, T/C [34] 91.9% | viability, T/C [35] 76.5% | viability, T/C (second compound 3.16 µM, first compound 0.0316 µM) 67.6% | viability, T/C (second compound 3.16 µM, first compound 0.1 µM) 81.6% | viability, T/C (second compound 3.16 µM, first compound 0.316 µM) 81.1% | viability, T/C (second compound 3.16 µM, first compound 1 µM) 82% | viability, T/C (second compound 3.16 µM, first compound 3.16 µM) 65.6% | viability, T/C (second compound 10 µM, first compound 0.0316 µM) 15.2% | viability, T/C (second compound 10 µM, first compound 0.1 µM) 17.1% | viability, T/C (second compound 10 µM, first compound 0.316 µM) 26.6% | viability, T/C (second compound 10 µM, first compound 1 µM) 35.3% | viability, T/C (second compound 10 µM, first compound 3.16 µM) 38.8% | viability, T/C (second compound 10 µM, first compound 10 µM) 2.29%
5.37: pIC50 (second compound 3.16 µM)
5.32: pIC50 (second compound 0.316 µM)
